Patent publication US20020019389A1, “Urea derivative useful as an anti-cancer agent and process for preparing same” (priority 2000, published 2002)
Values after ≈ are worked out from the molar mass of the structure shown. Where two headings read alike, the source gives them in different places.

How the values were obtained:
[1] = test system: SPF ICR mouse; assay: Acute toxicity test, single oral administration; assay type: in vivo; details: male and female ICR mice, single administration per oral, 7-day observation
Procedure: (§1) (1) Test Animal: SPF ICR mouse
(§2) (2) Age of the Test Animal: 4 weeks from acquisition 5 weeks from the start of administration
(§3) (3) Gender and Number of Test Animal: respective 18 he and she-mice (6 groups in each of he and she-mice, 3 mice per group)
(§4) (4) Breeding Environment: Temperature 22±3° C., Relative humidity […], Illumination 150-300 Lux
(§5) (5) Method of Administration: Single administration per oral
(§6) (6) Items to be Observed: General symptoms, appearance, weight and autopsy of dead mice
(§7) (8) Medium: 0.5% Tween 80

[2] = test system: A549 (lung cancer) cell line; assay: Anti-cancer activity in vitro, A549 cell line; assay type: cell-based
Procedure: (§8) The anti-cancer activity and toxicity of the compound according to the present invention were evaluated in vitro using A549 (lung cancer), SUN638 (gastric cancer), HCT116 (rectal cancer), and A431 (ovarian cancer) cell lines. The above four (4) cell lines were purchased from Cancer Research Institute, Seoul National University College of Medicine. […] The experiment was basically carried out according to the process described in Monks, A., et al, Journal of National Cancer Institute. 83: 757-766 (1991) and the results are represented in the following Tables 2 and 3.

[3] = test system: SUN638 (gastric cancer) cell line; assay: Anti-cancer activity in vitro, SUN638 cell line; assay type: cell-based
Procedure: as §8

[4] = test system: A431 (ovarian cancer) cell line; assay: Anti-cancer activity in vitro, A431 cell line; assay type: cell-based
Procedure: as §8

[5] = test system: A431 cell line; assay: Anti-cancer activity in vitro, A431 cell line; assay type: cell-based; details: Homo sapiens, A-431, read-out: LC50
Procedure: as §8

[6] = test system: HCT116 (rectal cancer) cell line; assay: Anti-cancer activity in vitro, HCT116 cell line; assay type: cell-based
Procedure: as §8

[7] = Acute toxicity test, single oral administration; assay type: in vivo; details: mouse, in vivo, single administration per oral, 7-day observation
Procedure: as §1, §2, §3, §4, §5, §6, §7

[8] = Homo sapiens, A549, read-out: LC50
[9] = Homo sapiens, A549 Cell Line, read-out: GI50
[10] = SUN638 Cell Line, read-out: GI50
[11] = Homo sapiens, A-431, A431 Cell Line, read-out: GI50
[12] = Homo sapiens, HCT-116, read-out: LC50
[13] = Homo sapiens, HCT-116, HCT116 Cell Line, read-out: GI50
[14] = both sexes, male and female ICR mice

Row | SMILES | LC50 [2, 8] [mg/L] | GI50 [2, 9] [mg/L] | GI50 [3, 10] [mg/L] | LC50 ([3]; read-out: LC50) [mg/L] | TGI50 ([4]; A431 Cell Line) [µg/mL] | GI50 [4, 11] [mg/L] | LC50 [5] [mg/L] | LC50 [6, 12] [mg/L] | GI50 [6, 13] [mg/L] | GI50 ([2]; Homo sapiens, A549) [mg/L] | GI50 [3] [mg/L] | GI50 ([6]; Homo sapiens, HCT-116) [mg/L] | other results
1 | COc1cc2c(cc1OC)C(c1ccccc1)CN(C(=O)Nc1nc3ccccc3nc1OC)CC2 (centres unmarked) [Compound 2, 3-[N-(2-methoxyquinoxalin-3-yl)aminocarbonyl]-7,8-dimethoxy-1-phenyl-2,3,4,5-tetrahydro-3H-benzazepine] | – | – | – | – | – | – | – | – | – | – | – | – | LD50 [1]: 2000 (male and female) mg/kg
2 | C=CCNc1nc(NCC=C)nc(N2CCN(C(=O)NC(c3ccccc3)c3ccccc3)CC2)n1 [Compound 38, 1-[(diphenylmethyl)aminocarbonyl]-4-(4,6-bis-allylamino-[1,3,5]triazin-2-yl)piperazine] | > 100 | 1.28 (≈ 2.64 µM) | 2.75 (≈ 5.67 µM) | > 100 | 7.24 | 1.41 (≈ 2.91 µM) | > 100 | > 100 | 1.28 (≈ 2.64 µM) | – | – | – | LD50 at 7 day [7, 14]: 2000 mg/kg
3 | COc1nc2ccccc2nc1NC(=O)N1CCN(C(c2ccccc2)c2ccccc2)CC1 [Compound 48, 1-[N-(2-methoxyquinoxalin-3-yl)aminocarbonyl]-4-(diphenylmethyl)piperazine] | > 100 | 1.07 (≈ 2.36 µM) | 1.62 (≈ 3.57 µM) | > 100 | 100 | 1.65 (≈ 3.64 µM) | > 100 | > 100 | 0.67 (≈ 1.48 µM) | – | – | – | –
4 | Cc1cc(C)cc(N2CCN(C(=O)n3ccnc3)CC2)c1 [Compound 55, 1-[(1H-imidazol-1-yl)carbonyl]-4-(3,5-dimethylphenyl)piperazine] | > 100 | – | – | > 100 | 67.60 | – | > 100 | > 100 | – | 1.77 (≈ 6.22 µM) | 1.09 (≈ 3.83 µM) | 2.08 (≈ 7.31 µM) | GI50 ([4]; Homo sapiens, A-431): 1.38 mg/L (≈ 4.85 µM)
5 | Cc1cc(C)cc(N2CCN(C(=S)n3ccnc3)CC2)c1 [Compound 56, 1-[(1H-imidazol-1-yl)thiocarbonyl]-4-(3,5-dimethylphenyl) piperazine] | > 100 | 2.04 (≈ 6.79 µM) | 1.34 (≈ 4.46 µM) | > 100 | 28.84 | 1.31 (≈ 4.36 µM) | > 100 | > 100 | 1.47 (≈ 4.89 µM) | – | – | – | –
6 | Cc1cc(C)cc(N2CCN(C(=O)n3ccnc3)CC2)c1.Cl [Compound 57, 1-[(1H-imidazol-1-yl)carbonyl]-4-(3,5-dimethylphenyl)piperazine hydrochloride] | > 100 | – | – | > 100 | 8.31 | – | > 100 | > 100 | – | 1.77 | 1.69 | 1.34 | GI50 ([4]; Homo sapiens, A-431): 1.51 mg/L; LD50 at 7 day [7, 14]: 1160 mg/kg
7 | C=CCN(CC=C)c1nc(N(CC=C)CC=C)nc(N2CCN(C(=O)n3ccnc3)CC2)n1 [Compound 61, 1-[(1H-imidazol-1-yl)carbonyl]-4-(4,6-bis-diallylamino-[1,3,5]triazin-2-yl)piperazine] | > 100 | – | – | > 100 | – | – | – | – | – | 6.02 (≈ 13.4 µM) | 2.95 (≈ 6.56 µM) | – | LD50 at 7 day ([7]; female ICR mice): 1140 mg/kg; LD50 at 7 day ([7]; male ICR mice): 2330 mg/kg
8 | O=C(N1CCN(c2nc(NCC3CC3)nc(NCC3CC3)n2)CC1)n1ccnc1 [Compound 62, 1-[(1H-imidazol-1-yl)carbonyl]-4-(4,6-bis-cyclopropylmethylamino-[1,3,5]triazin-2-yl)piperazine] | > 100 | – | – | > 100 | – | – | – | > 100 | – | 0.48 (≈ 1.21 µM) | 0.61 (≈ 1.53 µM) | 0.38 (≈ 0.956 µM) | LD50 at 7 day ([7]; female ICR mice): 466 mg/kg; LD50 at 7 day ([7]; male ICR mice): 354 mg/kg
9 | COc1cc2c(cc1OC)C(c1ccccc1)CN(C(=S)n1ccnc1)CC2 (centres unmarked) [Compound 67, 3-[(1H-imidazol-1-yl)thiocarbonyl]-7,8-dimethoxy-1-phenyl-2,3,4,5-tetrahydro-3H-benzazepine] | – | – | – | – | 30.19 | – | – | – | – | – | – | – | GI50 ([2]; A549 Cell Line): 0.66 mg/L (≈ 1.68 µM); LC50 ([2]; A549 Cell Line): >100 mg/L; TGI50 ([2]; A549 Cell Line): 17.78 µg/mL; GI50 ([3]; SUN638 Cell Line): 1.51 mg/L (≈ 3.84 µM); LC50 ([3]; SUN638 Cell Line): >100 mg/L; TGI50 ([3]; SUN638 Cell Line): 8.12 µg/mL; GI50 ([4]; A431 Cell Line): 0.70 mg/L (≈ 1.78 µM); LC50 ([4]; A431 Cell Line): >100 mg/L; GI50 ([6]; HCT116 Cell Line): 0.23 mg/L (≈ 0.584 µM); LC50 ([6]; HCT116 Cell Line): >100 mg/L; TGI50 ([6]; HCT116 Cell Line): 13.48 µg/mL
